Assay results: patent US9511073B2, “Aromatic amides and uses thereof” (TAXIS Pharmaceuticals, Inc., priority 2011, dated 2016)
In brackets after ≈: the same amount, converted by molar mass.

What follows are compounds tested on Staphylococcus aureus (Isolate ID ATCC 29213) (assay: Bacterial assay: MIC by broth microdilution or agar dilution (CLSI), S. aureus ATCC 29213). Settings: S. aureus (ATCC29213).
Format: cell-based
Method: Compounds are tested for antimicrobial activity by susceptibility testing in liquid or on solid media. Minimum inhibitory concentrations (MICs) for compounds against each strain are determined by the broth microdilution or agar dilution method according to the guidelines of the Clinical Laboratories and Standards Institute, formerly the National Committee for Clinical Laboratory Standards (Clinical Laboratories and Standards Institute. Methods for Dilution Antimicrobial Susceptibility Tests for Bacteria That Grow Aerobically; Approved Standard—Seventh Edition. Document M7-A7. CLSI, Wayne, Pa., 2006; Clinical Laboratories and Standards Institute). The bacterial strains tested include S. aureus (Staphylococcus aureus (Isolate ID ATCC 29213)) and an FtsZ mutant of this isolate (FtsZ-G196A Staphylococcus aureus (Isolate ID GG/190723/sa/1.2)). Compound MICs were determined to be in the following activity ranges “A” activity≦0.25 μg/mL; “B” activity>0.25 μg/mL-1.0 μg/mL; “C” activity>1.0 μg/mL-16 μg/mL; “D” activity>16 μg/mL and ND=not determined. The bracketed entries indicate entantiomer(s) and their activity.
For NC(=O)c1c(F)ccc(OC(CCC(O)CO)c2nc(-c3ccc(C(F)(F)F)cc3)c(Br)o2)c1F (single isomer, unassigned) [Compound 128, 3-((1-(5-bromo-4-(4-(trifluoromethyl)phenyl)oxazol-2-yl)-4,5-dihydroxypentyl)oxy)-2,6-difluorobenzamide (mixture of two diastereomeric pairs of enantiomers)], the “S. aureus MIC (μg/mL) Activity Range” value was “B (activity>0.25 μg/mL-1.0 μg/mL)”.
In the case of NC(=O)c1c(F)ccc(OC(CC(O)CO)c2nc(-c3ccc(C(F)(F)F)cc3)c(Br)o2)c1F (stereo not shown) [Compound 157, 3-(1-(5-bromo-4-(4-(trifluoromethyl)phenyl)oxazol-2-yl)-3,4-dihydroxybutoxy)-2,6-difluorobenzamide], the “S. aureus MIC (μg/mL) Activity Range” value is reported as “B (activity>0.25 μg/mL-1.0 μg/mL)”.

Same assay, conditions: Staphylococcus aureus, ATCC29213, read-out: S. aureus MIC (μg/mL) Activity Range, S. aureus (ATCC29213)
With NC(=O)c1c(F)ccc(OC(CCC(=O)O)c2nc(-c3ccc(C(F)(F)F)cc3)c(Br)o2)c1F (stereo not shown) [Compound 91, 4-(5-bromo-4-(4-(trifluoromethyl)phenyl)oxazol-2-yl)-4-(3-carbamoyl-2,4-difluorophenoxy)butanoic acid] the MIC was 1 to 16 µg/mL (≈ 1.82 to 29.1 µM).
For CCOc1cnc2sc(C(C)Oc3ccc(F)c(C(N)=O)c3F)nc2c1 (stereo not shown) [Compound 29, 3-(1-(6-ethoxythiazolo[5,4-b]pyridin-2-yl)ethoxy)-2,6-difluorobenzamide], the MIC was 1 to 16 µg/mL (≈ 2.64 to 42.2 µM).
NC(=O)c1c(F)ccc(OC(CO)c2nc(-c3cccs3)c(Br)o2)c1F (stereo not shown) [Compound 243, 3-(1-(5-bromo-4-(thiophen-2-yl)oxazol-2-yl)-2-hydroxyethoxy)-2,6-difluorobenzamide] gave an MIC of 1 to 16 µg/mL (≈ 2.25 to 35.9 µM).
Work on CC(Oc1ccc(F)c(C(N)=O)c1F)c1nc(-c2ccc(C(F)(F)F)nc2)c(Cl)o1 (stereo not shown) [Compound 50] yielded an MIC of 1 to 16 µg/mL (≈ 2.23 to 35.7 µM).
For NC(=O)c1c(F)ccc(OC(COC(=O)NCc2ccc[n+]([O-])c2)c2nc(-c3ccc(C(F)(F)F)cc3)c(Br)o2)c1F (stereo not shown) [Compound 174, 3-((((2-(5-bromo-4-(4-(trifluoromethyl)phenyl)oxazol-2-yl)-2-(3-carbamoyl-2,4-difluorophenoxy)ethoxy)carbonyl)amino)methyl)pyridine 1-oxide], the MIC was > 16 µg/mL.
For NC(=O)c1c(F)ccc(OC(COC(=O)Cn2cccc2)c2nc(-c3ccc(C(F)(F)F)cc3)c(Br)o2)c1F (stereo not shown) [Compound 68, 2-(5-bromo-4-(4-(trifluoromethyl)phenyl)oxazol-2-yl)-2-(3-carbamoyl-2,4-difluorophenoxy)ethyl 2-(1H-pyrrol-1-yl)acetate], the MIC was < 0.25 µg/mL.
CC(Oc1ccc(F)c(C(N)=O)c1F)c1nc(-c2ccc(Cl)cc2)co1 (stereo not shown) [Compound 4] showed an MIC of 1 to 16 µg/mL (≈ 2.64 to 42.2 µM).
For Cc1cc(Cl)ccc1-c1nc(C(CO)Oc2ccc(F)c(C(N)=O)c2F)oc1Br (stereo not shown) [Compound 239, 3-(1-(5-bromo-4-(4-chloro-2-methylphenyl)oxazol-2-yl)-2-hydroxyethoxy)-2,6-difluorobenzamide], the MIC was < 0.25 µg/mL.
With NC(=O)c1c(F)ccc(OC(CNC(=O)c2cccnc2)c2nc(-c3ccc(C(F)(F)F)cc3)c(Br)o2)c1F (stereo not shown) [Compound 295, N-(2-(5-bromo-4-(4-(trifluoromethyl)phenyl)oxazol-2-yl)-2-(3-carbamoyl-2,4-difluorophenoxy)ethyl)nicotinamide] the MIC was 0.25 to 1 µg/mL (≈ 0.409 to 1.64 µM).
In the case of CC(Oc1ccc(F)c(C(N)=O)c1F)c1nc(-c2ccc(Cl)cc2)c(Br)o1 (stereo not shown) [Compound 1], the MIC is reported as < 0.25 µg/mL.
Work on C=CCc1oc(C(COC(C)=O)Oc2ccc(F)c(C(N)=O)c2F)nc1-c1ccc(C(F)(F)F)cc1 (stereo not shown) [Compound 63, 2-(5-allyl-4-(4-(trifluoromethyl)phenyl)oxazol-2-yl)-2-(3-carbamoyl-2,4-difluorophenoxy)ethyl acetate] yielded an MIC of 1 to 16 µg/mL.
In the case of CC(=O)OCCC(Oc1ccc(F)c(C(N)=O)c1F)c1nc(-c2ccc(C(F)(F)F)cc2)c(Br)o1 (stereo not shown) [Compound 72, 3-(5-bromo-4-(4-(trifluoromethyl)phenyl)oxazol-2-yl)-3-(3-carbamoyl-2,4-difluorophenoxy)propyl acetate], the MIC is reported as 1 to 16 µg/mL.
With CNCC(=O)OCC(Oc1ccc(F)c(C(N)=O)c1F)c1nc(-c2ccc(Cl)cc2)c(Cl)o1 (stereo not shown) [Compound 59, 2-(3-carbamoyl-2,4-difluorophenoxy)-2-(5-chloro-4-(4-chlorophenyl)oxazol-2-yl)ethyl 2-(methylamino)acetate] the MIC was 0.25 to 1 µg/mL (≈ 0.5 to 2 µM).
Compound NC(=O)c1c(F)ccc(OC(CO)c2nc(-c3ccc(C(F)(F)F)cc3)c(Cl)o2)c1F (stereo not shown) [Compound 44, 3-(1-(5-chloro-4-(4-(trifluoromethyl)phenyl)oxazol-2-yl)-2-hydroxyethoxy)-2,6-difluorobenzamide] has an MIC of 0.25 to 1 µg/mL (≈ 0.54 to 2.16 µM).
For NC(=O)c1c(F)ccc(OC(COCCO)c2nc(-c3ccc(C(F)(F)F)cc3)c(Br)o2)c1F (stereo not shown) [Compound 150, 3-(1-(5-bromo-4-(4-(trifluoromethyl)phenyl)oxazol-2-yl)-2-(2-hydroxyethoxy)ethoxy)-2,6-difluorobenzamide], the MIC was 0.25 to 1 µg/mL (≈ 0.454 to 1.81 µM).
With NC(=O)c1c(F)ccc(OC(c2nc(-c3ccc(C(F)(F)F)cc3)c(Br)o2)C(O)CO)c1F (stereo not shown) [Compound 189, 3-(1-(5-bromo-4-(4-(trifluoromethyl)phenyl)oxazol-2-yl)-2,3-dihydroxypropoxy)-2,6-difluorobenzamide] the MIC was 1 to 16 µg/mL (≈ 1.86 to 29.8 µM).
NC(=O)c1c(F)ccc(OC(COCCN2CCOCC2)c2nc(-c3ccc(C(F)(F)F)cc3)c(Br)o2)c1F (stereo not shown) [Compound 168, 3-(1-(5-bromo-4-(4-(trifluoromethyl)phenyl)oxazol-2-yl)-2-(2-morpholinoethoxy)ethoxy)-2,6-difluorobenzamide] gave an MIC of 1 to 16 µg/mL (≈ 1.61 to 25.8 µM).
For CC(Oc1ccc(F)c(C(N)=O)c1F)c1nc(-c2ccc(C(F)(F)F)cn2)c(Cl)o1 (stereo not shown) [Compound 43], the MIC was 1 to 16 µg/mL (≈ 2.23 to 35.7 µM).
CNC(=O)C(Oc1ccc(F)c(C(N)=O)c1F)c1nc(-c2ccc(Cl)cc2)c(Cl)o1 (stereo not shown) [Compound 49, 3-(1-(5-chloro-4-(4-chlorophenyl)oxazol-2-yl)-2-(methylamino)-2-oxoethoxy)-2,6-difluorobenzamide] showed an MIC of 1 to 16 µg/mL (≈ 2.19 to 35.1 µM).
In the case of NC(=O)c1c(F)ccc(OC(COC(=O)N2CCOCC2)c2nc(-c3ccc(C(F)(F)F)cc3)c(Br)o2)c1F (stereo not shown) [Compound 160, 2-(5-bromo-4-(4-(trifluoromethyl)phenyl)oxazol-2-yl)-2-(3-carbamoyl-2,4-difluorophenoxy)ethyl morpholine-4-carboxylate], the MIC is reported as < 0.25 µg/mL.
For CN(C)C(=O)CCC(Oc1ccc(F)c(C(N)=O)c1F)c1nc(-c2ccc(C(F)(F)F)cc2)c(Br)o1 (stereo not shown) [Compound 94, 3-(1-(5-bromo-4-(4-(trifluoromethyl)phenyl)oxazol-2-yl)-4-(dimethylamino)-4-oxobutoxy)-2,6-difluorobenzamide], the MIC was < 0.25 µg/mL.
For CNCC(=O)OCC(Oc1ccc(F)c(C(N)=O)c1F)c1nc(-c2ccc(C(F)(F)F)cc2)c(Br)o1 (stereo not shown) [Compound 62, 2-(5-bromo-4-(4-(trifluoromethyl)phenyl)oxazol-2-yl)-2-(3-carbamoyl-2,4-difluorophenoxy)ethyl 2-(methylamino)acetate], the MIC was 0.25 to 1 µg/mL (≈ 0.432 to 1.73 µM).
With CCCC(Oc1ccc(F)c(C(N)=O)c1F)c1nc(-c2ccc(Cl)cc2)c(Br)o1 (stereo not shown) [Compound 23] the MIC was 1 to 16 µg/mL (≈ 2.06 to 32.9 µM).
In the case of C=CCc1oc(C(CO)Oc2ccc(F)c(C(N)=O)c2F)nc1-c1ccc(C(F)(F)F)cc1 (stereo not shown) [Compound 66, 3-(1-(5-allyl-4-(4-(trifluoromethyl)phenyl)oxazol-2-yl)-2-hydroxyethoxy)-2,6-difluorobenzamide], the MIC is reported as 1 to 16 µg/mL (≈ 2.14 to 34.2 µM).
In the case of C=CCCC(Oc1ccc(F)c(C(N)=O)c1F)c1nc(-c2ccc(C(F)(F)F)cc2)c(Br)o1 (stereo not shown) [Compound 124, 3-((1-(5-bromo-4-(4-(trifluoromethyl)phenyl)oxazol-2-yl)pent-4-en-1-yl)oxy)-2,6-difluorobenzamide], the MIC is reported as 1 to 16 µg/mL (≈ 1.88 to 30.1 µM).
CCOC(=O)C(Oc1ccc(F)c(C(N)=O)c1F)c1nc(-c2ccc(Cl)cc2)cs1 (stereo not shown) [Compound 11, ethyl 2-(3-carbamoyl-2,4-difluorophenoxy)-2-(4-(4-chlorophenyl)thiazol-2-yl)acetate] was tested, and the MIC was < 0.25 µg/mL.
CN(Cc1cnccn1)C(=O)OCC(Oc1ccc(F)c(C(N)=O)c1F)c1nc(-c2ccc(C(F)(F)F)cc2)c(Br)o1 (stereo not shown) [Compound 192, 2-(5-bromo-4-(4-(trifluoromethyl)phenyl)oxazol-2-yl)-2-(3-carbamoyl-2,4-difluorophenoxy)ethyl methyl(pyrazin-2-ylmethyl)carbamate] was tested, and the MIC was 0.25 to 1 µg/mL (≈ 0.381 to 1.52 µM).
In the case of CS(=O)(=O)N1CCN(C(=O)OCC(Oc2ccc(F)c(C(N)=O)c2F)c2nc(-c3ccc(C(F)(F)F)cc3)c(Br)o2)C1=O (stereo not shown) [Compound 169, 2-(5-bromo-4-(4-(trifluoromethyl)phenyl)oxazol-2-yl)-2-(3-carbamoyl-2,4-difluorophenoxy)ethyl 3-(methylsulfonyl)-2-oxoimidazolidine-1-carboxylate], the MIC is reported as 1 to 16 µg/mL (≈ 1.43 to 22.9 µM).
Work on COCc1oc([C@@H](CO)Oc2ccc(F)c(C(N)=O)c2F)nc1-c1ccc(OC)cc1 [Compound 304B, (R)-2,6-difluoro-3-(2-hydroxy-1-(5-(methoxymethyl)-4-(4-methoxyphenyl)oxazol-2-yl)ethoxy)benzamide] yielded an MIC of 1 to 16 µg/mL (≈ 2.3 to 36.8 µM).
Work on Cc1noc(-c2ccc(-c3nc(C(CO)Oc4ccc(F)c(C(N)=O)c4F)oc3Br)cc2)n1 (stereo not shown) [Compound 85, 3-(1-(5-bromo-4-(4-(3-methyl-1,2,4-oxadiazol-5-yl)phenyl)oxazol-2-yl)-2-hydroxyethoxy)-2,6-difluorobenzamide] yielded an MIC of 1 to 16 µg/mL (≈ 1.92 to 30.7 µM).
Compound Cn1cncc1CNC(=O)OCC(Oc1ccc(F)c(C(N)=O)c1F)c1nc(-c2ccc(C(F)(F)F)cc2)c(Br)o1 (stereo not shown) [Compound 195, 2-(5-bromo-4-(4-(trifluoromethyl)phenyl)oxazol-2-yl)-2-(3-carbamoyl-2,4-difluorophenoxy)ethyl ((1-methyl-1H-imidazol-5-yl)methyl)carbamate] has an MIC of 1 to 16 µg/mL (≈ 1.55 to 24.8 µM).
CC(=O)OCC(Oc1ccc(F)c(C(N)=O)c1F)c1nc(-c2ccc(Cl)cc2)c(Br)o1 (stereo not shown) [Compound 36] was tested, and the MIC was 0.25 to 1 µg/mL (≈ 0.485 to 1.94 µM).
